# Measurements published in patent US20100092479A1, “Compositions and methods for treatment of viral diseases” (CombinatoRx (Singapore) Pte. Ltd., priority 2008, published 2010).
# Counter-ions that a name gives are not always drawn. Like-named read-outs stand apart in the source and are kept apart here.
# How the values were obtained:
# [1] = test system: Huh7 cells expressing a subgenomic RNA replicon of Con1 (genotype 1b); assay: HCV replicon assay (luciferase, SteadyLite), Example 1; assay type: cell-based; details: single agent; for IC50: read-out: IC50 (concentration required to achieve 50% inhibition of viral replication); for Emax: read-out: Max Eff (maximum effect, inhibition of viral replication)
# Protocol: The HCV replicon assay enables screening of compounds with antiviral activity against HCV viral RNA replication. Huh7 cells expressing a subgenomic RNA replicon of Con1 (genotype 1b) sequence origin and expressing the reporter enzyme luciferase were obtained from ReBLikon, GmBH. In order to perform the assay, replicon cells were seeded on a 384-well plate at 4,000 cells/well in a total volume of 30 μL well. The plated cells were incubated at 37° C., 5% CO2. Pre-diluted compounds at a 10× concentration were added to each well to achieve the desired final concentration. Plates were centrifuged at 900×g, 1 minute following the addition of compounds. Cells were incubated an additional 48 hours or 72 hours at 37° C., 5% CO2. Plates were removed from the incubator 30 minutes to 1 hour prior to the addition of 25 μL/well of SteadyLite luciferase assay reagent from Perkin Elmer in order to equilibrate plates to room temperature. Following the addition of SteadyLite reagent, cells were allowed to incubate for 10 minutes prior to collecting data with a luminometer. Antiviral activity was quantified by the inhibition of luciferase activity.
# For screens involving a combination of compounds, a synergy score was calculated by the formula S=log fX log fYΣIdata(Idata−/ILoewe), summed over all non-single-agent concentration pairs, and where log fX,Y are the natural logarithm of the dilution factors used for each single agent. This effectively calculates a volume between the measured and Loewe additive response surfaces, weighted towards high inhibition and corrected for varying dilution factors. […] In general, the magnitude of the synergy score indicates the strength of the synergistic interaction.
# [2] = test system: HMGCR; assay: HMGCR protein expression by western analysis in Huh7 cells; assay type: cell-based, human; details: Huh7 cells treated 16 hrs, GAPDH control
# Protocol: For protein expression analysis, Huh-luc/neo-ET cells were seeded in 4 ml of medium at 250,000 cells per well on 6-well plates and allowed to adhere for 6-8 hours. Stock solutions of compound were added at a 1:1000 dilution and cells were incubated in the presence of compound over 96 hours. Medium and compounds were refreshed once after an initial incubation of 48 hours. Cells were washed in phosphate-buffered saline (PBS, Invitrogen-Gibco) and lysed by the addition of 1× RIPA lysis buffer (0.5 M Tris-HCl, pH 7.4/1.5 M NaCl/2.5% deoxycholic acid/10% NP-40/10 mM EDTA, purchased from Upstate) containing Complete, Mini Protease inhibitor cocktail and PhosSTOP phosphatase inhibitor cocktail tablets (Roche) according to the manufacturer's recommendations. Cell lysates were rocked for 30 minutes at 4° C. and centrifuged at 10,000×g for 10 minutes at 4° C. The protein concentration of each extract was determined by BCA protein assay (Pierce) according to the manufacturer's protocol. […]
# To determine the effects of our chemical inhibitors on HMGCR expression, we treated Huh7 cells with the listed concentrations of each chemical for 16 hrs (FIG. 4b). Cell lysates were extracted according to the methods and HMGCR protein expression was analyzed by SDS-PAGE separation and western staining with antibodies specific for HMGCR and GAPDH.
# [3] = test system: HCV genotype 1b subgenomic replicon; assay: cHTS luciferase assay (viral inhibition) in Huh-luc/neo-ET cells, Experiment 2; assay type: cell-based; details: single agent; for IC50: Hepatitis C virus, Huh-luc/neo-ET, replicon luciferase activity, 48 hours, read-out: IC50, HCV replication
# Protocol: (§1) The human hepatoma cell line Huh-7^1 and Huh-luc/neo-ET cells (ReBLikon, GmbH) were maintained in Dulbecco's modified Eagle's medium (DMEM; Gibco Invitrogen) supplemented with 10% Fetal Bovine Serum (FBS, Gibco Invitrogen),1% Penicillin/Streptomycin (Gibco Invitrogen), 1% Gluta MAX-1 (Gibco Invitrogen) and 1% Non-Essential Amino Acids Solution (Gibco Invitrogen) at 37° C., 5% CO2. Huh-luc/neo-ET cells were grown in medium additionally supplemented with 250 ug/ml Geneticin (G418, Gibco Invitrogen). These cells stably express an HCV genotype 1b subgenomic replicon encoding firefly (Photinus pyralis) luciferase, the coding sequence for ubiquitin and neomycin phosphotransferase downstream of the HCV IRES and upstream of an EMCV IRES which mediates translation of downstream viral nonstructural proteins NS3 to NS5B^2. For all experimental procedures Huh-luc/neo-ET and Huh-7 parental cells were seeded in DMEM without phenol red in the absence of G418 and Penicillin/Streptomycin (screening medium).
# (§2) Cells were seeded in 30 μl of screening medium at 4000 cells/well on white (Huh-luc/neo-ET cells for viral inhibition assay) or black (Huh7 cells for proliferation inhibition assay) 384-well assay plates (Matrix) and incubated overnight for approximately 20 hours. Using a MiniTrak™ Robotic Liquid Handling System (Perkin-Elmer) 1 μl of compound stock solutions (1000× concentration in DMSO unless otherwise mentioned) in an X (2-fold dilutions of compound horizontally arrayed) or Y (2-fold dilutions of compound vertically arrayed) format was transferred from master plates into 384-well clear bottom plates containing 100 μl screening medium (dilution plates) and mixed thoroughly. From each X and Y dilution plate, 3.3 μl was subsequently transferred to the 384-well assay plates for a final compound dilution of 1:1000 generating a 9×9 (81-point) dose response matrix. The cells were then incubated for 48 hours prior to measuring luciferase activity (viral inhibition) or ATP depletion (proliferation inhibition). 25 μl of SteadyLite (Perkin-Elmer) was added to the white 384-well assay plates and 15 μl of ATPLite (Perkin-Elmer) was added to the black 384-well plates which were subsequently incubated at least 5 minutes before measuring the luminescent signal. All luminescence measurements were assayed for 0.1 sec per well with an EnVision™ Xcite multilabel automatic plate reader with Enhanced Luminescence (Perkin-Elmer) and expressed as the number of relative light units (RLU) detected. Compounds were assayed in duplicate 9×9 dose matrices on each plate and DMSO-only control wells were included as negative untreated controls.
# Dose matrices were assembled from replicate combination blocks on experimental 384-well pates. Raw phenotype measurements T from each treated well were converted to normalized measures of inhibitory activity a=−log10(TN) or fractional inhibition I=1−T/V relative to the median V of 20 vehicle-treated wells arranged around the plate. After normalization, we calculated average activity values between replicate measurements at the same treatment doses, along with σ1σ1, the accompanying standard error estimates. Single agent responses were tested at eleven serially-diluted doses and combination data as 9×9 dose matrices each testing all pairs of 8 serially-diluted single agent concentrations along with their single agent doses as a control.
# (§3) The resulting impact on viral replication, as measured by replicon luciferase activity, is shown as dose response curves in FIG. 1a. A host proliferation counterscreen measuring cellular ATP levels was assessed in parallel using the Huh7 parental cell line and the data were used to evaluate the selectivity of each probe. All of the compounds tested produced either increases (proviral) or decreases (antiviral) in replicon replication.
# [4] = test system: Huh7 parental cell line; assay: Host proliferation counterscreen measuring cellular ATP levels (ATPLite); assay type: cell-based, human
# Protocol: as §1, §2, §3
# [5] = test system: HCV RNA; assay: HCV RNA copy number by RT-qPCR in Huh-luc/neo-ET cells; assay type: cell-based; details: 72 hr treatment
# Protocol: Measurement of HCV RNA levels in response to drug were carried out by first seeding Huh-luc/neo-ET cells in 100 μl of medium at 7,500 cells per well for 72 hour drug treatments and allowed to adhere overnight for approximately 20 hours. Compounds were added at a 1:1000 dilution in duplicate and added to cells in 3 separate experiments. Total RNA was harvested using an RNeasy 96-well kit (Qiagen) according to the manufacturer's protocol and quantified using the Quant-iT™ RiboGreen® RNA Reagent (Invitrogen). Purified RNA (4 μl) was added to TaqMan reactions containing 10 μl of QuantiTect Probe RT-PCR Master Mix (Qiagen) and 0.2 μL, of QuantiTect RT Mix. […] All 20 μl reactions were assayed in an Eppy Twin-Tec skirted PCR plate (Eppendorf) and subjected to quantitative one-step RT-PCR with an Eppendorf Realplex4 qPCR machine (Eppendorf) using the following program: 50° C. for 30 min, 95° C. for 15 min, and 40 cycles of 95° C. for 15 s followed by 60° C. for 1 min 15 s. Absolute quantification of HCV RNA copy number was determined by comparing PCR signals to a standard curve generated from dilutions of a 160 by PCR-amplified fragment of the 5′NTR of HCV. […] All qPCR samples quantified by comparison to the standard curve were subsequently normalized to total RNA per sample to account for variations in sample purification and preparation steps. […]
# [6] = single agent, Huh7 parental cells
Compound,"IC50 ([1]; Hepatitis C virus, Huh-7) [nM]","Emax ([1]; Hepatitis C virus, Huh-7) [%]",further results
Clc1ccccc1CNC[C@H]1CC[C@H](CNCc2ccccc2Cl)CC1 [AY-9944],2520,85,
COC(=O)[C@H](CC(C)C)NC(=O)c1ccc(NC[C@@H](N)CS)cc1-c1ccccc1 [GGTI-286],3700,79,
CCN(CC)CCO[C@H]1CC[C@@]2(C)C(=CC[C@@H]3[C@@H]2CC[C@]2(C)C(=O)CC[C@@H]32)C1 [U18666A],,,"HMGCR protein expression [2]: apparent overexpression; IC50 [3]: 19.4 nM; HCV replication (replicon luciferase activity), result in words [3]: inhibited HCV replication; impact on host cell ATP levels [4, 6]: marginal impact"
"O=C([O-])C[C@H](O)C[C@H](O)/C=C/c1c(C2CC2)nc2ccccc2c1-c1ccc(F)cc1.O=C([O-])C[C@H](O)C[C@H](O)/C=C/c1c(C2CC2)nc2ccccc2c1-c1ccc(F)cc1.[Ca+2] [Itavastatin, calcium salt, Itavastatin]",,,"Max Eff (maximum effect, inhibition of viral replication) [1]: 92; IC50 [1]: 2300 nM"
"CCC(C)(C)c1ccc(CC(C)CN2C[C@@H](C)O[C@@H](C)C2)cc1 (stereo partly drawn) [amorolfine, Amorolfine]",,,"HCV replication (replicon luciferase activity), result in words [3]: inhibited HCV replication; impact on host cell ATP levels [4, 6]: marginal impact"
CCN(CC)CCOc1ccc(C(O)(Cc2ccc(Cl)cc2)c2ccc(C)cc2)cc1 (stereo not drawn) [Triparanol],1550,87,
"CCN(CC)CCOc1ccc(/C(=C(\Cl)c2ccccc2)c2ccccc2)cc1 [Clomiphene citrate, Clomiphene]",,86,
CCOP(=O)(OCC)C(=Cc1cc(C(C)(C)C)c(O)c(C(C)(C)C)c1)P(=O)(OCC)OCC [SR 12813],,,"Max Eff (maximum effect, inhibition of viral replication) [1]: 47"
O=C(c1ccc(Cl)cc1)N1CCC(=Cc2ccc(C3=NCCO3)cc2)CC1 [BIBB-515],,46,
CC(C)n1c(/C=C/C(O)CC(O)CC(=O)O)c(-c2ccc(F)cc2)c2ccccc21 (stereo not drawn) [Fluvastatin],15800,65,
"CCC(C)(C)c1ccc(CC(C)CN2C[C@@H](C)O[C@@H](C)C2)cc1 (stereo partly drawn) [Amorolfine hydrochloride, Amorolfine]",7660,62,
CCC(C)(C)C(=O)O[C@H]1C[C@@H](C)C=C2C=C[C@H](C)[C@H](CC[C@@H]3C[C@@H](O)CC(=O)O3)[C@H]21 [Simvastatin],14000,71,
"C[C@@H](Cc1ccc(C(C)(C)C)cc1)CN1C[C@@H](C)O[C@@H](C)C1 [fenpropimorph, Fenpropimorph]",,,"HCV replication (replicon luciferase activity), result in words [3]: inhibited HCV replication; impact on host cell ATP levels [4]: marginal impact"
CC[C@H](C)C(=O)O[C@H]1CCC=C2C=C[C@H](C)[C@H](CC[C@@H]3C[C@@H](O)CC(=O)O3)[C@H]21 [Mevastatin],600,101,
C=C(CC[C@]12O[C@H](C(=O)O)[C@@](O)(C(=O)O)[C@](C(=O)O)(O1)[C@H](OC(=O)/C=C/[C@@H](C)C[C@@H](C)CC)[C@H]2O)[C@@H](OC(C)=O)[C@H](C)Cc1ccccc1 [Squalestatin],,,effect on HCV RNA replication (viral RNA copy number normalized to total RNA) [5]: proviral effects
"CCCCCCCCCCCCCCOc1ccc(C(=O)O)o1 [TOFA, 5-(tetradecyloxy)-2-furancarboxylic acid]",6250,95,
CC(C)CCCC(C)[C@H]1CC(=O)C2=C3CC[C@H]4C[C@@H](O)CC[C@]4(C)C3CC[C@@]21C (stereo partly drawn) [Colestolone],1620,79,"HCV replication (replicon luciferase activity), result in words [3]: inhibited HCV replication; impact on host cell ATP levels [4, 6]: marginal impact"
C=CCN(C)CCCCCCOc1ccc(C(=O)c2ccc(Br)cc2)c(F)c1 [Ro 48-8071],60,66,"HMGCR protein expression [2]: apparent overexpression; IC50 [3]: 68.3 nM; HCV replication (replicon luciferase activity), result in words [3]: inhibited HCV replication; impact on host cell ATP levels [4, 6]: marginal impact"
CC[C@H](C)C(=O)O[C@H]1C[C@@H](C)C=C2C=C[C@H](C)[C@H](CC[C@@H]3C[C@@H](O)CC(=O)O3)[C@H]21 [Lovastatin],1640,102,
Terconazole,,,"Max Eff (maximum effect, inhibition of viral replication) [1]: 95; IC50 [1]: 1660 nM"
CCCCCCC(=O)CCCCCC/C=C/C[C@@H](O)[C@H](O)[C@@](N)(CO)C(=O)O [Myriocin],,33,
